# Results published in ChEMBL document CHEMBL6182863, “Discovery of novel rigid STING PROTAC degraders as potential therapeutics for acute kidney injury” (Eur J Med Chem, 2025).
# Activity calls are given as the source filed them. The rule behind the calls is not given here.
# Experiments:
# [1] = Toxicity in cisplatin-induced acute kidney injury C57BL/6J mouse model assessed as morphological abnormality in spleen at 25 to 50 mg/kg, ip by H and E staining based analysis; assay type: organism-based; details: in vivo, dose 25-50 mg/kg
# [2] = Acute toxicity in C57BL/6J mouse assessed as change in body weight at 30 mg/kg; assay type: organism-based; details: in vivo
# Mus musculus [3] = experiment: Renoprotective activity against cisplatin-induced C57BL/6J mouse acute kidney injury model assessed as reduction in creatinine level at 25 to 50 mg/kg, ip measured after 72 hrs; assay type: functional, organism-based; details: dose 25-50 mg/kg
# Mus musculus [4] = experiment: Renoprotective activity against cisplatin-induced C57BL/6J mouse acute kidney injury model assessed as decrease in disease activity index score at 25 to 50 mg/kg, ip measured after 72 hrs; assay type: functional, organism-based; details: dose 25-50 mg/kg
# [5] = target: T1, Protein cereblon/Stimulator of interferon genes protein (Homo sapiens, UniProt Q96SW2+Q86WV6); experiment: PROTAC activity at CRBN/STING in human THP-1 cells assessed as induction of STING degradation at 5 uM incubated for 24 hrs in presence of bafilomycin by Western blotting analysis; assay type: cell-based
# Target sequence in this assay (Q86WV6 whole entry, looked up): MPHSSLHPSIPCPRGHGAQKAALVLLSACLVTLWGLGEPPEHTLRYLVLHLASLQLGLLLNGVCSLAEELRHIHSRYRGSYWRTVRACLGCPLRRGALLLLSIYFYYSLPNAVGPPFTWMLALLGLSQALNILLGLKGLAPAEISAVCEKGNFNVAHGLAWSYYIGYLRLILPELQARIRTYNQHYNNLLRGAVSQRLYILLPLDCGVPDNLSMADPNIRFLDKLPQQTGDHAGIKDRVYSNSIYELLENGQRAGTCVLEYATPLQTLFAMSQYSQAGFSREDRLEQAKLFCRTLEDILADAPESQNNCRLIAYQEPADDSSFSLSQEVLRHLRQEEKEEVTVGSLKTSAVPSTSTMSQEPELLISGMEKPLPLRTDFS
# Target sequence in this assay (Q96SW2 whole entry, looked up): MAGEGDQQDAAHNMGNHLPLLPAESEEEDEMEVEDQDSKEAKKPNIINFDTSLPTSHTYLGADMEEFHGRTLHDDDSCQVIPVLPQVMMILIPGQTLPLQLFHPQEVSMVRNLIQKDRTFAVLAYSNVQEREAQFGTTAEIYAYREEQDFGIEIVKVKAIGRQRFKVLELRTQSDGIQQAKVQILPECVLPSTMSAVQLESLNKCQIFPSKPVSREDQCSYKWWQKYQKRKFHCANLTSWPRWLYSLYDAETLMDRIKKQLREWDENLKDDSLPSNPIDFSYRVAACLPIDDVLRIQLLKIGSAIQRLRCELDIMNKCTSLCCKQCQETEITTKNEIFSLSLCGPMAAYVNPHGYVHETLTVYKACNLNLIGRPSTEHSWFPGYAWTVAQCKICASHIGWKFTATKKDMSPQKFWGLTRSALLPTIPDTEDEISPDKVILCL
# [6] = target: T1, Protein cereblon/Stimulator of interferon genes protein; experiment: PROTAC activity at CRBN/STING in human THP-1 cells assessed as induction of STING degradation at 5 uM incubated for 24 hrs in presence of MG132 by Western blotting analysis; assay type: cell-based
# Target sequence in this assay (Q86WV6 whole entry, looked up): as the sequence (Q86WV6 whole entry, looked up) above
# Target sequence in this assay (Q96SW2 whole entry, looked up): as the sequence (Q96SW2 whole entry, looked up) above
# BV-2 = experiment: Cytotoxicity against mouse BV-2 cells assessed as reduction in cell viability at > 60 uM incubated for 24 hrs by MTT assay; assay type: toxicity, cell-based; details: bv-2, 24 h
# [7] = Cmax in male Sprague-Dawley rat at 2 mg/kg, iv measured after 12 hrs by LC-MS/MS analysis; assay type: ADME, organism-based; details: in vivo
# [8] = target: T2, Protein cereblon/Stimulator of interferon genes protein (Mus musculus) (UniProt Q3TBT3+Q8C7D2); experiment: In vivo inhibition of STING/TBK1/NF-kappaB signaling in C57BL/6J mouse assessed as decrease in P-TBK1 protein level in kidney at 25 to 50 mg/kg, ip measured after 72 hrs by Western blotting analysis; assay type: functional, organism-based; details: dose 25-50 mg/kg
# T2 sequence (Q3TBT3 whole entry, looked up): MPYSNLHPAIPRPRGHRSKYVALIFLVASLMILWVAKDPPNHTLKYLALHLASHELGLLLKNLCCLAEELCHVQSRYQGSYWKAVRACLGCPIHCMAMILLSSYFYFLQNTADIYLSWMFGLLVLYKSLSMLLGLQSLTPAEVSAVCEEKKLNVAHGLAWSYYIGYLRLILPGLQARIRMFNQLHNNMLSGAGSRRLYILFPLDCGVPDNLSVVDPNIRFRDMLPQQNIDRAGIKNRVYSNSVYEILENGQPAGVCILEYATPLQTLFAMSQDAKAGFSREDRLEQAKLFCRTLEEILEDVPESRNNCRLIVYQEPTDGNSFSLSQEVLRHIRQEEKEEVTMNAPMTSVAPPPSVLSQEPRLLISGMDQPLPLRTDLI
# T2 sequence (Q8C7D2 whole entry, looked up): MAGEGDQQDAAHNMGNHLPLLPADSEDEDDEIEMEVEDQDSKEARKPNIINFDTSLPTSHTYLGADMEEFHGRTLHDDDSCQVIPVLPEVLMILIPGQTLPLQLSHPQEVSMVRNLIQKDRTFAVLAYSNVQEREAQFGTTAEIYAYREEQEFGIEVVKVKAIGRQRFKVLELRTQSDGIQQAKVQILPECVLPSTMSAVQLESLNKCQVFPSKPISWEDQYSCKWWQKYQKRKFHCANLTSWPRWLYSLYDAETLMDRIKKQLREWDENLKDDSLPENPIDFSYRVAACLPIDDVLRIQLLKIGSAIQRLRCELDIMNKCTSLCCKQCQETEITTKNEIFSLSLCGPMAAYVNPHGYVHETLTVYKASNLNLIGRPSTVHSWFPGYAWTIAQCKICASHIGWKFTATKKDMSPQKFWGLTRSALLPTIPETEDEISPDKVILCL
# THP-1 [9] = experiment: PROTAC activity at CRBN/AKT in human THP-1 cells assessed as induction of AKT degradation at 1.25 to 20 uM measured after 24 hrs by Western blotting analysis; assay type: cell-based; details: dose 1.25-20 µM
# [10] = AUC (0 to t) in male Sprague-Dawley rat at 2 mg/kg, iv measured after 12 hrs by LC-MS/MS analysis; assay type: ADME, organism-based; details: in vivo
# [11] = Acute toxicity in C57BL/6J mouse assessed as change in body weight at 61 mg/kg; assay type: organism-based; details: in vivo
# [12] = Toxicity in cisplatin-induced acute kidney injury C57BL/6J mouse model assessed as morphological abnormality in liver at 25 to 50 mg/kg, ip by H and E staining based analysis; assay type: organism-based; details: in vivo, dose 25-50 mg/kg
# [13] = target: T1, Protein cereblon/Stimulator of interferon genes protein; experiment: PROTAC activity at CRBN/STING in human THP-1 cells assessed as induction of STING degradation measured after 24 hrs by Western blotting analysis; assay type: cell-based
# Target sequence in this assay (Q96SW2 whole entry): as the sequence (Q96SW2 whole entry, looked up) above
# Target sequence in this assay (Q86WV6 whole entry): as the sequence (Q86WV6 whole entry, looked up) above
# [14] = Tmax in male Sprague-Dawley rat at 2 mg/kg, iv measured after 12 hrs by LC-MS/MS analysis; assay type: ADME, organism-based; details: in vivo
# Mus musculus [15] = experiment: Renoprotective activity against cisplatin-induced C57BL/6J mouse acute kidney injury model assessed as reduction in kidney weight at 25 to 50 mg/kg, ip measured after 72 hrs; assay type: functional, organism-based; details: dose 25-50 mg/kg
# [16] = Metabolic stability in human liver microsomes assessed as metabolic factor relative to control; assay type: ADME, Microsome
# Mus musculus [17] = experiment: Renoprotective activity against cisplatin-induced C57BL/6J mouse model assessed as reduction in renal injury administered intraperitoneally by H and E staining based analysis; assay type: functional, organism-based; details: dose 25-50 mg/kg, route ip
# [18] = Half life in male Sprague-Dawley rat at 2 mg/kg, iv measured after 12 hrs by LC-MS/MS analysis; assay type: ADME, organism-based; details: in vivo
# [19] = Cytotoxicity against rat BRL-3A cells assessed as reduction in cell viability at 0.5 to 120 uM incubated for 24 hrs by MTT assay; assay type: toxicity, cell-based; details: dose 0.5-120 µM
# Mus musculus [20] = experiment: Renoprotective activity against cisplatin-induced C57BL/6J mouse acute kidney injury model assessed as survival rate at 25 mg/kg, ip measured after 72 hrs relative to control; assay type: functional
# Mus musculus [21] = experiment: Renoprotective activity against cisplatin-induced C57BL/6J mouse acute kidney injury model assessed as recovery of body weight administered intraperitoneally and measured after 72 hrs; assay type: functional, organism-based; details: dose 25-50 mg/kg, route ip
# Mus musculus [22] = experiment: Renoprotective activity against cisplatin-induced C57BL/6J mouse acute kidney injury model assessed as decrease in fecal viscosity at 25 to 50 mg/kg, ip measured after 72 hrs; assay type: functional, organism-based; details: dose 25-50 mg/kg
# [23] = Acute toxicity in C57BL/6J mouse assessed as mortality at 30 to 179 mg/kg; assay type: organism-based; details: in vivo, dose 30-179 mg/kg
# [24] = target: T2, Protein cereblon/Stimulator of interferon genes protein (Mus musculus); experiment: In vivo inhibition of STING/TBK1/NF-kappaB signaling in C57BL/6J mouse assessed as decrease in serum IFN-beta level at 25 to 50 mg/kg, ip measured after 72 hrs by ELISA; assay type: functional, organism-based; details: dose 25-50 mg/kg
# [25] = Acute toxicity in C57BL/6J mouse assessed as change in body weight at 88 mg/kg; assay type: organism-based; details: in vivo
# [26] = MRT (0 to t) in male Sprague-Dawley rat at 2 mg/kg, iv measured after 12 hrs by LC-MS/MS analysis; assay type: ADME, organism-based; details: in vivo
# [27] = Metabolic stability in human liver microsomes assessed as intrinsic clearance per gram of protein; assay type: ADME, Microsome
# H9c2 = experiment: Cytotoxicity against rat H9c2 cells assessed as reduction in cell viability at 0.5 to 120 uM incubated for 24 hrs by MTT assay; assay type: toxicity, cell-based; details: h9c2, 24 h, dose 0.5-120 µM
# [28] = Clearance in male Sprague-Dawley rat at 2 mg/kg, iv measured after 12 hrs by LC-MS/MS analysis; assay type: ADME, organism-based; details: in vivo
# Mus musculus [29] = experiment: Renoprotective activity against cisplatin-induced C57BL/6J mouse acute kidney injury model assessed as survival rate at 50 mg/kg, ip measured after 72 hrs relative to control; assay type: functional
# HK-2 [30] = experiment: Inhibition of ROS formation in human HK-2 cells measured after 24 hrs in presence of cisplatin by DAPI staining based fluorescence microscopic analysis; assay type: functional, cell-based; details: dose 1.25-5 µM
# THP-1 [31] = experiment: PROTAC activity at CRBN/LKB1 in human THP-1 cells assessed as induction of LKB1 degradation at 1.25 to 20 uM by Western blotting analysis; assay type: cell-based; details: dose 1.25-20 µM
# [32] = Water solubility of the compound at 2 mg by HPLC analysis; assay type: physicochemical
# [33] = AUC (0 to infinity) in male Sprague-Dawley rat at 2 mg/kg, iv measured after 12 hrs by LC-MS/MS analysis; assay type: ADME, organism-based; details: in vivo
# HK-2 [34] = experiment: Inhibition of STING downstream signal pathway in cisplatin stimulated human HK-2 cells assessed as reduction in STING protein level at 1.25 to 5 uM pretreated with cisplatin followed by compound addition by Western blotting analysis; assay type: cell-based; details: dose 1.25-5 µM
# HEK-293T = experiment: Cytotoxicity against human HEK293T cells assessed as reduction in cell viability at 0.5 to 120 uM incubated for 24 hrs by MTT assay; assay type: toxicity, cell-based; details: dose 0.5-120 µM
# [35] = MRT (0 to infinity) in male Sprague-Dawley rat at 2 mg/kg, iv measured after 12 hrs by LC-MS/MS analysis; assay type: ADME, organism-based; details: in vivo
smiles,measurement,setting,value
O=C(/C=C/C(=O)N1CCN(CC2CCN(c3cccc4c3C(=O)N(C3CCC(=O)NC3=O)C4=O)C2)CC1)Nc1ccc(NC(=O)c2ccc([N+](=O)[O-])o2)cc1 (stereo not drawn),Activity,[1],Non-toxic
same,Activity,[2],25.1 g
same,Activity,Mus musculus [3],Active
same,Activity_index,Mus musculus [4],Active
same,Activity,[5],Active
same,Activity,[6],inactive
same,Activity,BV-2,Non-toxic
same,Cmax,[7],2390 ng/mL
same,inhibition,[8],Active
same,Activity,THP-1 [9],inactive
same,AUC(0-t) at 12 h,[10],729 ng·h/mL
same,Activity,[11],25.3 g
same,Activity,[12],Non-toxic
same,DC50,[13],620 nM
same,Tmax,[14],4.8 min
same,Activity,Mus musculus [15],Active
same,Activity,[16],15.8%
same,Activity,Mus musculus [17],Dose-dependent-effect
same,half-life,[18],51.6 min
same,Activity,[19],Non-toxic
same,survival at 25 mg/kg,Mus musculus [20],78%
same,Activity,Mus musculus [21],Dose-dependent-effect
same,Activity,Mus musculus [22],Active
same,Activity,[23],Non-toxic
same,inhibition,[24],Active
same,Activity,[25],24.9 g
same,MRT last at 12 h,[26],12 min
same,CLint,[27],104 mL/min/g
same,Activity,H9c2,Non-toxic
same,CL,[28],53.3 mL/min/kg
same,survival at 50 mg/kg,Mus musculus [29],100%
same,inhibition,HK-2 [30],Dose-dependent-effect
same,Activity,THP-1 [31],inactive
same,solubility,[32],3.317 µg/mL
same,AUC,[33],0.73 µg/ml.hr
same,inhibition,HK-2 [34],Active
same,Activity,HEK-293T,Non-toxic
same,MRT inf,[35],12.6 min
